The structures appear in SMILES notation.

In experiment [1] the test system is rice blast fungus (Magnaporthe grisea). The experiment is described as follows: microbe, parasite or virus in culture. In kind it is cell-based. The settings on record: Pyricularia oryzae, read-out: antimicrobial activity, inhibition of Magnaporthe grisea.
Experiment [2] deals with Botrytis cinerea AARF-033. The experiment is described as follows: Antimicrobial activity test against rice Botrytis cinerea (conidia, 96 well microplate). In kind it is cell-based. To be noted: AARF033, 96 h, conidia 1×10^4 conidia/ml in potato-glucose broth, 25° C. for 4 days. The text has this:
Test specimen (compound (A2-1) and compound (A5-1)) and reference agents i.e. iprodione and captan, were, respectively, dissolved in dimethyl sulfoxide (DMSO) and adjusted to 10,000 ppm. To a flat bottom 96 well microplate, 2 μ/ml of each test solution was dispensed, and then, 198 μ/ml of conidia of rice Botrytis cinerea (Botrytis cinerea AARF-033) cultured on a potato-glucose agar medium, and suspended in a potato-glucose broth and adjusted to 1×10^4 conidia/ml, were dispensed, followed by stirring by a micro mixer. At that time, the concentration of each test specimen and reference agent, was 100 ppm. Thereafter, culturing under standing-still condition was conducted at 25° C. for 4 days, whereby the antimicrobial activities were evaluated.

Consider `CCCCNC(=O)n1c(NC(=O)OC)nc2ccccc21` [Benomyl, benomyl], for which the inhibition at 100 ppm in experiment [1] is at least 95%. For `O=C1C2CC=CCC2C(=O)N1SC(Cl)(Cl)Cl` (centres unmarked) [Captan, captan], the inhibition at 100 ppm in experiment [2] was at least 95%. As to `CCOC(=O)c1cnc(-c2ccccc2)nc1C(F)(OC(F)(F)C(F)(F)C(F)(F)F)C(F)(F)F` (centres unmarked) [Compound A2-1], the inhibition at 100 ppm in experiment [2] and in experiment [1] was at least 95% throughout. Turning to `Nc1cnc(-c2ccccc2)nc1C(F)(F)OC(F)(F)C(F)(F)OC(F)(F)C(F)(F)F` [Compound A5-1], the inhibition at 100 ppm in experiment [2] and in experiment [1] was at least 95% in each case. As for `CO/N=C(/C1=NOCCO1)c1ccccc1Oc1ncnc(Oc2ccccc2Cl)c1F` [Fluoxastrobin, fluoxastrobin], the inhibition at 100 ppm in experiment [1] was at least 95%. In experiment [2], `CC(C)NC(=O)N1CC(=O)N(c2cc(Cl)cc(Cl)c2)C1=O` [Iprodione, iprodione] returned an inhibition at 100 ppm of at least 95%.

The values are drawn from patent publication US20170050934A1 (priority 2014, published 2017).
